Assay results taken from patent publication US20170137410A1, “FUSED CYCLOALKYL-PYRIMIDINE COMPOUNDS AND USES THEREOF” (Medivation Technologies, Inc., priority 2014, published 2017).

How the values were obtained:
Type in all cases: biochemical
[1] = target: T1, activated IGF-1R (Homo sapiens, UniProt P08069); test: In vitro IGF-1R enzymatic assay (ADP-Glo); details: ATP 100 μM; for inhibition at 1 µM: compound 1 μM; for inhibition at 3 µM: compound 3 μM; for inhibition at 10 µM: compound 10 μM; for inhibition at 30 µM: compound 30 μM
T1 construct: purchased Millipore 14-802
Experimental: (§1) Inhibition of IGF-1R and IR kinases by compounds described herein were tested. The IC50 values were measured in vitro using an ADP-Glo kinase assay Kit (Promega). For the IGF-1R assay, active recombinant IGF-1R (Millipore #14-802) was used at 1 ng/reaction, the substrate IGF-1R tide (Millipore #12-527) was used at 125 μM and ATP was used at 100 μM. For the IR assay, active recombinant IR (Millipore #14-803) was used at 1 ng/reaction, the substrate Axl tide (Millipore #12-516) was used at 125 μM and ATP at 50 μM. Kinase reactions in both assays were conducted at 30° C. for 20 min with increasing concentrations of the test compounds.
(§2) The assay results as the percent inhibition of binding are presented in Tables B2 and B3 for IGF-1R and IR respectively.

[2] = target: Trk B (Homo sapiens, UniProt Q16620); test: HotSpot kinase assay against Trk B; details: HotSpot 33P assay, ATP 10 μM-30 μM
Experimental: (§3) Kinase assays were performed using test compounds against a panel of Trk kinases: Trk A; Trk B; and Trk C. Each compound was tested at a concentration of 0.1 μM in single duplicate mode against the three kinases. Compounds were prepared as 10 mM stock solutions in DMSO prior to use in the assay. The control compound, staurosporine, was tested at 10 concentrations with three-fold serial dilution starting at 20 μM. IC50 values and curve fits were obtained using Prism (GraphPad Software). IC50 values were determined for staurosporine for comparison.
(§4) The screening was performed using the “HotSpot” assay platform. The assay measures the conversion of a peptide substrate to ^33P-labelled phosphorylated product. Briefly, specific kinase/substrate pairs along with required cofactors were prepared in reaction buffer. Specifically, the substrate was prepared in reaction buffer (20 mM Hepes, pH 7.5; 10 mM MgCl2; 1 mM EGTA; 0.02% Brij35; 0.02 mg/mL BSA; 0.1 mM Na3VO4; 2 mM DTT; 1% DMSO), followed by delivery of any required cofactor to the resulting substrate solution. The corresponding kinase was delivered into the substrate solution and the reaction mixture was mixed gently. Compound was delivered into the reaction mixture, followed 15-20 min later by addition of a mixture of ATP (Sigma, St. Louis Mo.) and ^33P ATP (specific activity 0.01 μCi/μL final; Perkin Elmer, Waltham, Mass.) to a final concentration of 10 μM-30 μM to initiate the reaction. Reactions were carried out at RT for 120 min, followed by spotting of the reactions onto P81 ion exchange filter paper (Whatman #3698-915; Whatman Inc., Piscataway, N.J.). Unbound phosphate was removed by extensive washing of filters in 0.75% phosphoric acid. […] The percent of enzyme inhibition was calculated based on the percent of remaining kinase activity.

[3] = target: Trk A (Homo sapiens, UniProt P04629); test: HotSpot kinase assay against Trk A; details: HotSpot 33P assay, ATP 10 μM-30 μM
Experimental: as §3, §4

[4] = target: Trk C (Homo sapiens, UniProt Q16288); test: HotSpot kinase assay against Trk C; details: HotSpot 33P assay, ATP 10 μM-30 μM
Experimental: as §3, §4

[5] = target: T2, activated IR (Homo sapiens, UniProt P06213); test: In vitro IR enzymatic assay (ADP-Glo); details: ATP 50 μM; for inhibition at 1 µM: compound 1 μM; for inhibition at 3 µM: compound 3 μM; for inhibition at 30 µM: compound 30 μM
T2 construct: purchased Millipore 14-803
Experimental: as §1, §2

Sequence of Trk A (P04629 33-796): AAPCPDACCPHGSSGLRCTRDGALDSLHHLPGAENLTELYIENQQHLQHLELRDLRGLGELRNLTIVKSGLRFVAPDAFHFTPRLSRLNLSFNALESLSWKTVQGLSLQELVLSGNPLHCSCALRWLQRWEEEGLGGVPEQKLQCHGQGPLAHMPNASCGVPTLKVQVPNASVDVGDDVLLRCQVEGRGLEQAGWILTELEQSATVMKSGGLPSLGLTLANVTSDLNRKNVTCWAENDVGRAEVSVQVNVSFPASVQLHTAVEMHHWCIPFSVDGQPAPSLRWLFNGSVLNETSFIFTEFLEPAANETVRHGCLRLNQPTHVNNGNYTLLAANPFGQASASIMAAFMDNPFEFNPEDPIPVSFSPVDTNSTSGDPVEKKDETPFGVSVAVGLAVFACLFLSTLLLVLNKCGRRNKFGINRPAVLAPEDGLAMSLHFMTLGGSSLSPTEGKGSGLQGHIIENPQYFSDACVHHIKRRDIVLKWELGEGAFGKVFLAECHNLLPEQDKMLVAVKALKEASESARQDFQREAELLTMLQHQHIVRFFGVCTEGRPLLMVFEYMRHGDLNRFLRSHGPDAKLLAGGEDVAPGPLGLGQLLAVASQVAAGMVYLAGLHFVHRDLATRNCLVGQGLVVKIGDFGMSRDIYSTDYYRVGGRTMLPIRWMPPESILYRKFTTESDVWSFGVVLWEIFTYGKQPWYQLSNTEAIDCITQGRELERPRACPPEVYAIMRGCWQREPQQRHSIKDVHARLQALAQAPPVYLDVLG
T2 sequence (P06213 28-1382): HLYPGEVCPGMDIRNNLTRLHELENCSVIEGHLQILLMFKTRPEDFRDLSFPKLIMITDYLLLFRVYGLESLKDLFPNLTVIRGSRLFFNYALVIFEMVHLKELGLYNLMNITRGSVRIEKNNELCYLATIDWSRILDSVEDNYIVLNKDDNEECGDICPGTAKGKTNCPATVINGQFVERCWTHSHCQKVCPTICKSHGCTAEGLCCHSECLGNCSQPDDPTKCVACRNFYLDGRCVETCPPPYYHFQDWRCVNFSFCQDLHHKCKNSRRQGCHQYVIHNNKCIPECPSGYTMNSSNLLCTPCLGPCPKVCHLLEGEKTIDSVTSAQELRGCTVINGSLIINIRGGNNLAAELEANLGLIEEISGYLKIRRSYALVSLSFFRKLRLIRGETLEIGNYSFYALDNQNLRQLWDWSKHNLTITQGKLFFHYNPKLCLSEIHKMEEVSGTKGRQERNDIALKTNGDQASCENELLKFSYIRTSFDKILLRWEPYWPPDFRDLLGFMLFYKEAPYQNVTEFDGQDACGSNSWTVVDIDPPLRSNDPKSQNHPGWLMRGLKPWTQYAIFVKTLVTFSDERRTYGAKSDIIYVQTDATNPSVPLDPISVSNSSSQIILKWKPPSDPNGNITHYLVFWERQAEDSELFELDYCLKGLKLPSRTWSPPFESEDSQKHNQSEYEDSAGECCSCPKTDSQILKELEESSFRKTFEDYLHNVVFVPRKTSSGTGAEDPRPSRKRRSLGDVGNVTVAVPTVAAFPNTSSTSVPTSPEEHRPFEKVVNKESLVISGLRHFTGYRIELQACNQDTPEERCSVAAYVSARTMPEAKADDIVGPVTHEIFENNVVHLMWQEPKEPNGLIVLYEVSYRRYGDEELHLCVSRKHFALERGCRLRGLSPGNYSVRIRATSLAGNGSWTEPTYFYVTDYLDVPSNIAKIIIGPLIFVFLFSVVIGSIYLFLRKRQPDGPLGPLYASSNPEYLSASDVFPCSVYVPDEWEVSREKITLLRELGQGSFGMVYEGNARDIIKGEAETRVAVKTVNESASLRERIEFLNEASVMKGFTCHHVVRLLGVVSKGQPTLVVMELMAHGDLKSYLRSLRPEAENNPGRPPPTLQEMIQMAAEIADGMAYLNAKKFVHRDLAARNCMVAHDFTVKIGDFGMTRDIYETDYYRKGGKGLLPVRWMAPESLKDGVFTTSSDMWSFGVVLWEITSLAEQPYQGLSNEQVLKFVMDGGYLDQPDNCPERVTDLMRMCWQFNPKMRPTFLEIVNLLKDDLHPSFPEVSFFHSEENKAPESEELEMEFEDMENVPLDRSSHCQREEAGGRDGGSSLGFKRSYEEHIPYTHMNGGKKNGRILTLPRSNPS
Sequence of Trk B (Q16620 32-822): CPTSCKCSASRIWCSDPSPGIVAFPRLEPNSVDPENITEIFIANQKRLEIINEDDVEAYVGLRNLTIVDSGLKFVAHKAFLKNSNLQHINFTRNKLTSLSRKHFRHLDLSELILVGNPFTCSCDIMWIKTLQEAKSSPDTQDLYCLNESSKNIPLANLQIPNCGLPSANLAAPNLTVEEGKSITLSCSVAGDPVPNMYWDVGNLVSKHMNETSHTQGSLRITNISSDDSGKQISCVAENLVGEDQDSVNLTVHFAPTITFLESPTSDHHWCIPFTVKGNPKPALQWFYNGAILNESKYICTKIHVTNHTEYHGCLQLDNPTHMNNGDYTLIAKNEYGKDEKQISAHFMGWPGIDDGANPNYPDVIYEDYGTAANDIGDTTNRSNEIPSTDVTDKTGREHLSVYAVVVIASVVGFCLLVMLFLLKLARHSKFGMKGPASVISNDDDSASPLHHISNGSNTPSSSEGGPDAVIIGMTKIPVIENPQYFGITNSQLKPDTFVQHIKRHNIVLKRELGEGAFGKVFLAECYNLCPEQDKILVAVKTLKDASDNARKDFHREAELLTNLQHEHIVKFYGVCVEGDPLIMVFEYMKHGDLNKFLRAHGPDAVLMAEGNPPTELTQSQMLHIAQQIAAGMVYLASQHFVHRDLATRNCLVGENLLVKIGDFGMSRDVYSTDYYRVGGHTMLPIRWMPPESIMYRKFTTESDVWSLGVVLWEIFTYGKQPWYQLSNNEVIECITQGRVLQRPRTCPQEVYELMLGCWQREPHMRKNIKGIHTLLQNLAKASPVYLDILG
T1 sequence (P08069 31-1367): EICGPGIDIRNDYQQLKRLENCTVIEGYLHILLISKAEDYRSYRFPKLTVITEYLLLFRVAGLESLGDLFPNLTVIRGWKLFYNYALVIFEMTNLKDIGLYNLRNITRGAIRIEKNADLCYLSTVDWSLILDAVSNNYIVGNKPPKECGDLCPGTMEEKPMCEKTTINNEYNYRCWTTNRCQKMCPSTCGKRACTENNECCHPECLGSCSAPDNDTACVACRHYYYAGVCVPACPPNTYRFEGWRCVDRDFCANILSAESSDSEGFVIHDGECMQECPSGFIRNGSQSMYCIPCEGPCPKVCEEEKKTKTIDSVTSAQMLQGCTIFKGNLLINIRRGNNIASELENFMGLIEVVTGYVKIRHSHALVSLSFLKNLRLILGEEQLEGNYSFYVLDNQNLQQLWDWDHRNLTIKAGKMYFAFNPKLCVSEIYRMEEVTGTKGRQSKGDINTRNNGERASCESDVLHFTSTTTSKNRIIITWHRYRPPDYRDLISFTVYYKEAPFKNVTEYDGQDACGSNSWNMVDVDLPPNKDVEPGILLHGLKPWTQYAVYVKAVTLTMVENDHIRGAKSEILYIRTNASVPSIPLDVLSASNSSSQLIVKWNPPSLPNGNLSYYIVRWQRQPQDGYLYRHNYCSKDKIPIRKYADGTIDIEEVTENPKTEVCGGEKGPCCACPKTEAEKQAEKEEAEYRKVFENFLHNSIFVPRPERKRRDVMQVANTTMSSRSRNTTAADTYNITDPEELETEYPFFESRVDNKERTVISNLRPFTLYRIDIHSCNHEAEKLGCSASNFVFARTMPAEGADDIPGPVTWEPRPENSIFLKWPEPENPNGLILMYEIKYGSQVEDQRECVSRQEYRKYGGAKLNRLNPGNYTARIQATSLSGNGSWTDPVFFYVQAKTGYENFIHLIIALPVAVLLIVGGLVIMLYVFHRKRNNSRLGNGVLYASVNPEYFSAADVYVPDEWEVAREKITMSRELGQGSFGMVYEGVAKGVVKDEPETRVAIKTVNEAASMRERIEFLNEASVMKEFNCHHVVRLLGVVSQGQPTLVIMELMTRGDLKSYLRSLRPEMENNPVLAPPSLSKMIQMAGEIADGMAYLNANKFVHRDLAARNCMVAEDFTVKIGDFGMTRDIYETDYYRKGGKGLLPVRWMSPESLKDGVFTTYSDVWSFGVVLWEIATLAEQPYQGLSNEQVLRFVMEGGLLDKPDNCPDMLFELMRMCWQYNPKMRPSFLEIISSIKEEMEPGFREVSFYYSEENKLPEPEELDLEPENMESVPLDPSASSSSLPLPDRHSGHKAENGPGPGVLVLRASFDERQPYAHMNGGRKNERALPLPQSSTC
Sequence of Trk C (Q16288 32-839): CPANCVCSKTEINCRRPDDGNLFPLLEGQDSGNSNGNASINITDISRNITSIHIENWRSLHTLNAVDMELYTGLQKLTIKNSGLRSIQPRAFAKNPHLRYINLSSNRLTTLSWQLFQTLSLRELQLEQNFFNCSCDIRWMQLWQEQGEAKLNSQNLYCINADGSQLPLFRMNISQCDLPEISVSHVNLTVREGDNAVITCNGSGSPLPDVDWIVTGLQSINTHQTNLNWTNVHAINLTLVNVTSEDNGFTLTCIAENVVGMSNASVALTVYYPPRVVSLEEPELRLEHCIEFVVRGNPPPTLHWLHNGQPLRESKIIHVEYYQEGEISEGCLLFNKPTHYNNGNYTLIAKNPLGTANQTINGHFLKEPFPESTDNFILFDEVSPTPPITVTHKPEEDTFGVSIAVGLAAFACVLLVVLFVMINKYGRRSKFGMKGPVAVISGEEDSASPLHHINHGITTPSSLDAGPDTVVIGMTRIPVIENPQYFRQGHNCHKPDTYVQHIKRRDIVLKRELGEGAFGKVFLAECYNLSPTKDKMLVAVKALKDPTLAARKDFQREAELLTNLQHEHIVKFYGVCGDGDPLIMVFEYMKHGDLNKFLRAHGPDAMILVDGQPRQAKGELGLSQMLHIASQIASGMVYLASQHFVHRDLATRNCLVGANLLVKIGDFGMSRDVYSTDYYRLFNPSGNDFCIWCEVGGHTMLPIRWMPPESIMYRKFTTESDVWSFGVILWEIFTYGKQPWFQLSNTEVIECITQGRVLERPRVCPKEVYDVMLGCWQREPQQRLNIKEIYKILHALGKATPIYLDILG

SMILES	inhibition at 1 µM [1]	IC50 [2]	IC50 [3]	IC50 [4]	inhibition at 1 µM [5]	inhibition at 3 µM [1]	inhibition at 10 µM [1]	inhibition at 30 µM [1]	inhibition at 3 µM [5]	inhibition at 30 µM [5]
CN(C)C(=O)[C@@H]1CCCN1c1nc2c(c(Nc3cc(C4CCOCC4)[nH]n3)n1)CCC2 [91b, (S)-N,N-dimethyl-1-(4-(5-(tetrahydro-2H-pyran-4-yl)-1H-pyrazol-3-ylamino)-6,7-dihydro-5H-cyclopenta[d]pyrimidin-2-yl)pyrrolidine-2-carboxamide]	0%	902 nM	6310 nM	362 nM	1%	4%	-2%	21%	-2%	7%
O=C([C@@H]1CCCN1c1nc2c(c(Nc3cc(C4CCCC4)[nH]n3)n1)CCC2)N1CCC(F)(F)C1 [109b, (S)-(1-(4-((5-cyclopentyl-1H-pyrazol-3-yl)amino)-6,7-dihydro-5H-cyclopenta[d]pyrimidin-2-yl)pyrrolidin-2-yl)(3,3-difluoropyrrolidin-1-yl)methanone]	12%	1 nM	11 nM	0.3 nM	12%	33%	61%	84%	39%	86%
CC(C)c1cc(Nc2nc(N3CCC[C@@H]3C(=O)N3CCCC3)nc3c2CCC3)n[nH]1 [138a, (R)-(1-(4-((5-isopropyl-1H-pyrazol-3-yl)amino)-6,7-dihydro-5H-cyclopenta[d]pyrimidin-2-yl)pyrrolidin-2-yl)(pyrrolidin-1-yl)methanone]		246 nM	878 nM	105 nM	37%	62%	83%	95%	61%	96%
CC(C)c1cc(Nc2nc(N3CCC[C@H]3C(=O)N3CC(F)(F)C(F)(F)C3)nc3c2CCC3)n[nH]1 [112b, (S)-(1-(4-(5-isopropyl-1H-pyrazol-3-ylamino)-6,7-dihydro-5H-cyclopenta[d]pyrimidin-2-yl)pyrrolidin-2-yl)(3,3,4,4-tetrafluoropyrrolidin-1-yl)methanone]		4 nM	109 nM	1.3 nM	12%	36%	65%	86%	36%	89%
CC(=O)N1CCN(C(=O)[C@@H]2CCCN2c2nc3c(c(Nc4cc(C5CCCC5)n[nH]4)n2)CCC3)CC1 [137b, 1-[4-[(2S)-1-[4-[(3-cyclopentyl-1H-pyrazol-5-yl)amino]-6,7-dihydro-5H-cyclopenta[d]pyrimidin-2-yl]pyrrolidine-2-carbonyl]piperazin-1-yl]ethanone]	10%	265 nM	1910 nM	110 nM	19%	-1%	15%	43%	9%	60%
CC(C)c1cc(Nc2nc(N3CCC[C@@H]3C(=O)N3CCC(F)(F)C3)nc3c2CCC3)n[nH]1 [139a, (R)-(3,3-difluoropyrrolidin-1-yl)(1-(4-((5-isopropyl-1H-pyrazol-3-yl)amino)-6,7-dihydro-5H-cyclopenta[d]pyrimidin-2-yl)pyrrolidin-2-yl)methanone]		258 nM	669 nM	144 nM	42%					
O=C(Nc1nccs1)[C@@H]1CCCN1c1nc2c(c(Nc3cc(C4CCCC4)[nH]n3)n1)CCC2 [133b, (S)-1-(4-(5-cyclopentyl-1H-pyrazol-3-ylamino)-6,7-dihydro-5H-cyclopenta[d]pyrimidin-2-yl)-N-(thiazol-2-yl)pyrrolidine-2-carboxamide]	95%	0.038 nM	0.515 nM	0.243 nM	97%					
CN1CCN(C(=O)[C@@H]2CCCN2c2nc3c(c(Nc4cc(C5CCCC5)n[nH]4)n2)CCC3)CC1=O [136b, 4-[(2S)-1-[4-[(3-cyclopentyl-1H-pyrazol-5-yl)amino]-6,7-dihydro-5H-cyclopenta[d]pyrimidin-2-yl]pyrrolidine-2-carbonyl]-1-methyl-piperazin-2-one]	15%	106 nM	1730 nM	42.4 nM	-2%	12%	28%	63%	21%	72%
CC(C)c1cc(Nc2nc(N3CCC[C@H]3C(=O)N3CCC(F)(F)C3)nc3c2CCC3)n[nH]1 [111b, (S)-(3,3-difluoropyrrolidin-1-yl)(1-(4-((5-isopropyl-1H-pyrazol-3-yl)amino)-6,7-dihydro-5H-cyclopenta[d]pyrimidin-2-yl)pyrrolidin-2-yl)methanone]		2 nM	53 nM	0.7 nM	35%					

The remaining compounds from weak to strong by IC50 [2], led by results:

inhibition at 1 µM [1]	IC50 [2]	IC50 [3]	IC50 [4]	inhibition at 1 µM [5]	inhibition at 3 µM [1]	inhibition at 10 µM [1]	inhibition at 30 µM [1]	inhibition at 3 µM [5]	inhibition at 30 µM [5]	SMILES
	628 nM	670 nM	279 nM	35%						CC(C)c1cc(Nc2nc(N3CCC[C@@H]3C(=O)N3CC(F)(F)C(F)(F)C3)nc3c2CCC3)n[nH]1 [112a, (R)-(1-(4-((5-isopropyl-1H-pyrazol-3-yl)amino)-6,7-dihydro-5H-cyclopenta[d]pyrimidin-2-yl)pyrrolidin-2-yl)(3,3,4,4-tetrafluoropyrrolidin-1-yl)methanone]
27%	231 nM	135 nM	146 nM	17%	47%	74%	96%	47%	97%	CC1(C)CCN(C(=O)[C@H]2CCCN2c2nc3c(c(Nc4cc(C5CCCC5)n[nH]4)n2)CCC3)CC1 [141a, (R)-(1-(4-((5-cyclopentyl-1H-pyrazol-3-yl)amino)-6,7-dihydro-5H-cyclopenta[d]pyrimidin-2-yl)pyrrolidin-2-yl)(4,4-dimethylpiperidin-1-yl)methanone]
72%	113 nM	237 nM	83 nM	64%						CN1CCN(C(=O)[C@H]2CCCN2c2nc3c(c(Nc4cc(C5CCCC5)n[nH]4)n2)CCC3)CC1=O [136a, 4-[(2R)-1-[4-[(3-cyclopentyl-1H-pyrazol-5-yl)amino]-6,7-dihydro-5H-cyclopenta[d]pyrimidin-2-yl]pyrrolidine-2-carbonyl]-1-methyl-piperazin-2-one]
1%	2 nM	41 nM	0.8 nM	3%	18%	34%	68%	21%	74%	O=C([C@@H]1CCCN1c1nc2c(c(Nc3cc(C4CCCC4)[nH]n3)n1)CCC2)N1CC(F)(F)C(F)(F)C1 [110b, (S)-(1-(4-(5-cyclopentyl-1H-pyrazol-3-ylamino)-6,7-dihydro-5H-cyclopenta[d]pyrimidin-2-yl)pyrrolidin-2-yl)(3,3,4,4-tetrafluoropyrrolidin-1-yl)methanone]
35%	2 nM	26 nM	1.2 nM	30%	57%	83%	95%	60%	97%	CN(C(=O)[C@@H]1CCCN1c1nc2c(c(Nc3cc(C4CCCC4)n[nH]3)n1)CCC2)c1nccs1 [70b, (2S)-1-[4-[(3-cyclopentyl-1H-pyrazol-5-yl)amino]-6,7-dihydro-5H-cyclopenta[d]pyrimidin-2-yl]-N-methyl-N-thiazol-2-yl-pyrrolidine-2-carboxamide]
